Data from ChEMBL document CHEMBL1909570, “Synthesis and antibacterial activity of N4-mono alkyl derivatives of novel glycopeptide LYV07ww01” (2011).
Values after ≈ are worked out from the molar mass of the structure shown.

Experiments:
Assay type in all cases: functional
Staphylococcus = experiment: Antibacterial activity against Staphylococcus albus 26101 by CLSI agar microdilution method
Streptococcus pneumoniae = experiment: Antibacterial activity against Streptococcus pneumoniae 31002 by CLSI agar microdilution method
[1] = tested on: Staphylococcus epidermidis; experiment: Antibacterial activity against Staphylococcus epidermidis 26069 by CLSI agar microdilution method
Enterococcus faecium = experiment: Antibacterial activity against Enterococcus faecium 32220 by CLSI agar microdilution method
Staphylococcus aureus = experiment: Antibacterial activity against Staphylococcus aureus 26003 by CLSI agar microdilution method
Streptococcus = experiment: Antibacterial activity against Streptococcus gamma 32206 by CLSI agar microdilution method

Row | Compound | MIC (Staphylococcus) [µg/mL] | MIC (Streptococcus pneumoniae) [µg/mL] | MIC [1] [µg/mL] | MIC (Enterococcus faecium) [µg/mL] | MIC (Staphylococcus aureus) [µg/mL] | MIC (Streptococcus) [µg/mL]
1 | CN[C@H](CC(C)C)C(=O)N[C@H]1C(=O)N[C@@H](CC(N)=O)C(=O)N[C@H]2C(=O)N[C@H]3C(=O)N[C@H](C(=O)N[C@@H](C(=O)O)c4cc(O)cc(O)c4-c4cc3ccc4O)[C@H](O[C@H]3C[C@](C)(N)[C@H](O)[C@H](C)O3)c3ccc(c(Cl)c3)Oc3cc2cc(c3O[C@@H]2O[C@H](CO)[C@@H](O)[C@H](O)[C@H]2O[C@H]2C[C@](C)(NCc3cc(F)c(F)cc3F)[C@H](O)[C@H](C)O2)Oc2ccc(cc2Cl)[C@H]1O | 3.13 (≈ 1.8 µM) | 1.56 (≈ 0.898 µM) | 12.5 (≈ 7.2 µM) | 1.56 (≈ 0.898 µM) | 1.56 (≈ 0.898 µM) | 12.5 (≈ 7.2 µM)
2 | CN[C@H](CC(C)C)C(=O)N[C@H]1C(=O)N[C@@H](CC(N)=O)C(=O)N[C@H]2C(=O)N[C@H]3C(=O)N[C@H](C(=O)N[C@@H](C(=O)O)c4cc(O)cc(O)c4-c4cc3ccc4O)[C@H](O[C@H]3C[C@](C)(N)[C@H](O)[C@H](C)O3)c3ccc(c(Cl)c3)Oc3cc2cc(c3O[C@@H]2O[C@H](CO)[C@@H](O)[C@H](O)[C@H]2O[C@H]2C[C@](C)(NCc3ccc(Cl)cc3)[C@H](O)[C@H](C)O2)Oc2ccc(cc2Cl)[C@H]1O | 3.13 (≈ 1.82 µM) | 1.56 (≈ 0.909 µM) | 12.5 (≈ 7.28 µM) | 3.13 (≈ 1.82 µM) | 3.13 (≈ 1.82 µM) | 1.56 (≈ 0.909 µM)
3 | CN[C@H](CC(C)C)C(=O)N[C@H]1C(=O)N[C@@H](CC(N)=O)C(=O)N[C@H]2C(=O)N[C@H]3C(=O)N[C@H](C(=O)N[C@@H](C(=O)O)c4cc(O)cc(O)c4-c4cc3ccc4O)[C@H](O[C@H]3C[C@](C)(N)[C@H](O)[C@H](C)O3)c3ccc(c(Cl)c3)Oc3cc2cc(c3O[C@@H]2O[C@H](CO)[C@@H](O)[C@H](O)[C@H]2O[C@H]2C[C@](C)(NCc3cccc(Cl)c3)[C@H](O)[C@H](C)O2)Oc2ccc(cc2Cl)[C@H]1O | 1.56 (≈ 0.909 µM) | 0.78 (≈ 0.454 µM) | > 25 | 1.56 (≈ 0.909 µM) | 1.56 (≈ 0.909 µM) | 0.78 (≈ 0.454 µM)
4 | CN[C@H](CC(C)C)C(=O)N[C@H]1C(=O)N[C@@H](CC(N)=O)C(=O)N[C@H]2C(=O)N[C@H]3C(=O)N[C@H](C(=O)N[C@@H](C(=O)O)c4cc(O)cc(O)c4-c4cc3ccc4O)[C@H](O[C@H]3C[C@](C)(N)[C@H](O)[C@H](C)O3)c3ccc(c(Cl)c3)Oc3cc2cc(c3O[C@@H]2O[C@H](CO)[C@@H](O)[C@H](O)[C@H]2O[C@H]2C[C@](C)(NCc3ccc(Cl)c(Cl)c3)[C@H](O)[C@H](C)O2)Oc2ccc(cc2Cl)[C@H]1O | 3.13 (≈ 1.79 µM) | 0.78 (≈ 0.445 µM) | > 25 | 6.25 (≈ 3.57 µM) | 3.13 (≈ 1.79 µM) | 0.78 (≈ 0.445 µM)
5 | CN[C@H](CC(C)C)C(=O)N[C@H]1C(=O)N[C@@H](CC(N)=O)C(=O)N[C@H]2C(=O)N[C@H]3C(=O)N[C@H](C(=O)N[C@@H](C(=O)O)c4cc(O)cc(O)c4-c4cc3ccc4O)[C@H](O[C@H]3C[C@](C)(N)[C@H](O)[C@H](C)O3)c3ccc(c(Cl)c3)Oc3cc2cc(c3O[C@@H]2O[C@H](CO)[C@@H](O)[C@H](O)[C@H]2O[C@H]2C[C@](C)(NCc3ccc(Cl)cc3Cl)[C@H](O)[C@H](C)O2)Oc2ccc(cc2Cl)[C@H]1O | 3.13 (≈ 1.79 µM) | 3.13 (≈ 1.79 µM) | 25 (≈ 14.3 µM) | 1.56 (≈ 0.891 µM) | 3.13 (≈ 1.79 µM) | 1.56 (≈ 0.891 µM)
6 | CN[C@H](CC(C)C)C(=O)N[C@H]1C(=O)N[C@@H](CC(N)=O)C(=O)N[C@H]2C(=O)N[C@H]3C(=O)N[C@H](C(=O)N[C@@H](C(=O)O)c4cc(O)cc(O)c4-c4cc3ccc4O)[C@H](O[C@H]3C[C@](C)(N)[C@H](O)[C@H](C)O3)c3ccc(c(Cl)c3)Oc3cc2cc(c3O[C@@H]2O[C@H](CO)[C@@H](O)[C@H](O)[C@H]2O[C@H]2C[C@](C)(NCc3cccc4ccccc34)[C@H](O)[C@H](C)O2)Oc2ccc(cc2Cl)[C@H]1O | 1.56 (≈ 0.9 µM) | 0.78 (≈ 0.45 µM) | > 25 | 1.56 (≈ 0.9 µM) | 1.56 (≈ 0.9 µM) | 6.25 (≈ 3.61 µM)
7 | CN[C@H](CC(C)C)C(=O)N[C@H]1C(=O)N[C@@H](CC(N)=O)C(=O)N[C@H]2C(=O)N[C@H]3C(=O)N[C@H](C(=O)N[C@@H](C(=O)O)c4cc(O)cc(O)c4-c4cc3ccc4O)[C@H](O[C@H]3C[C@](C)(N)[C@H](O)[C@H](C)O3)c3ccc(c(Cl)c3)Oc3cc2cc(c3O[C@@H]2O[C@H](CO)[C@@H](O)[C@H](O)[C@H]2O[C@H]2C[C@](C)(NCc3ccc4ccccc4c3)[C@H](O)[C@H](C)O2)Oc2ccc(cc2Cl)[C@H]1O | 3.13 (≈ 1.81 µM) | 1.56 (≈ 0.9 µM) | > 25 | 3.13 (≈ 1.81 µM) | 1.56 (≈ 0.9 µM) | 0.78 (≈ 0.45 µM)
8 | CN[C@H](CC(C)C)C(=O)N[C@H]1C(=O)N[C@@H](CC(N)=O)C(=O)N[C@H]2C(=O)N[C@H]3C(=O)N[C@H](C(=O)N[C@@H](C(=O)O)c4cc(O)cc(O)c4-c4cc3ccc4O)[C@H](O[C@H]3C[C@](C)(N)[C@H](O)[C@H](C)O3)c3ccc(c(Cl)c3)Oc3cc2cc(c3O[C@@H]2O[C@H](CO)[C@@H](O)[C@H](O)[C@H]2O[C@H]2C[C@](C)(NCc3ccc(-c4ccccc4)cc3)[C@H](O)[C@H](C)O2)Oc2ccc(cc2Cl)[C@H]1O | 1.56 (≈ 0.887 µM) | 1.56 (≈ 0.887 µM) | 6.25 (≈ 3.55 µM) | 1.56 (≈ 0.887 µM) | 3.13 (≈ 1.78 µM) | 0.78 (≈ 0.444 µM)
9 | CCCCCCOc1ccc(CN[C@@]2(C)C[C@H](O[C@H]3[C@H](Oc4c5cc6cc4Oc4ccc(cc4Cl)[C@@H](O[C@H]4C[C@](C)(N)[C@H](O)[C@H](C)O4)[C@@H]4NC(=O)[C@H](NC(=O)[C@@H]6NC(=O)[C@H](CC(N)=O)NC(=O)[C@H](NC(=O)[C@@H](CC(C)C)NC)[C@H](O)c6ccc(c(Cl)c6)O5)c5ccc(O)c(c5)-c5c(O)cc(O)cc5[C@H](C(=O)O)NC4=O)O[C@H](CO)[C@@H](O)[C@@H]3O)O[C@@H](C)[C@H]2O)cc1 | 6.25 (≈ 3.51 µM) | 3.13 (≈ 1.76 µM) | > 25 | 6.25 (≈ 3.51 µM) | 6.25 (≈ 3.51 µM) | 3.13 (≈ 1.76 µM)
10 | CN[C@H](CC(C)C)C(=O)N[C@H]1C(=O)N[C@@H](CC(N)=O)C(=O)N[C@H]2C(=O)N[C@H]3C(=O)N[C@H](C(=O)N[C@@H](C(=O)O)c4cc(O)cc(O)c4-c4cc3ccc4O)[C@H](O[C@H]3C[C@](C)(N)[C@H](O)[C@H](C)O3)c3ccc(c(Cl)c3)Oc3cc2cc(c3O[C@@H]2O[C@H](CO)[C@@H](O)[C@H](O)[C@H]2O[C@H]2C[C@](C)(NCc3ccc(Sc4ccccc4)cc3)[C@H](O)[C@H](C)O2)Oc2ccc(cc2Cl)[C@H]1O | 3.13 (≈ 1.75 µM) | 3.13 (≈ 1.75 µM) | > 25 | 3.13 (≈ 1.75 µM) | 3.13 (≈ 1.75 µM) | 3.13 (≈ 1.75 µM)
11 | CN[C@H](CC(C)C)C(=O)N[C@H]1C(=O)N[C@@H](CC(N)=O)C(=O)N[C@H]2C(=O)N[C@H]3C(=O)N[C@H](C(=O)N[C@@H](C(=O)O)c4cc(O)cc(O)c4-c4cc3ccc4O)[C@H](O[C@H]3C[C@](C)(N)[C@H](O)[C@H](C)O3)c3ccc(c(Cl)c3)Oc3cc2cc(c3O[C@@H]2O[C@H](CO)[C@@H](O)[C@H](O)[C@H]2O[C@H]2C[C@](C)(NCc3ccc(-c4ccc(Cl)cc4)cc3)[C@H](O)[C@H](C)O2)Oc2ccc(cc2Cl)[C@H]1O | 3.13 (≈ 1.75 µM) | 3.13 (≈ 1.75 µM) | 6.25 (≈ 3.49 µM) | 6.25 (≈ 3.49 µM) | 6.25 (≈ 3.49 µM) | 3.13 (≈ 1.75 µM)
